# According to PMC8621334, “Ammonium Formate-Pd/C as a New Reducing System for 1,2,4-Oxadiazoles. Synthesis of Guanidine Derivatives and Reductive Rearrangement to Quinazolin-4-Ones with Potential Anti-Diabetic Activity” (International Journal of Molecular Sciences, 2021):
# Target: T1, Dipeptidyl-Peptidase IV (DPPIV) (Homo sapiens, UniProt P27487)
# T1 construct: gene DPP4
# Assay: fluorometric DPPIV activity assay kit, % inhibition at […]
# Assay type: biochemical
# T1 sequence (P27487 whole entry): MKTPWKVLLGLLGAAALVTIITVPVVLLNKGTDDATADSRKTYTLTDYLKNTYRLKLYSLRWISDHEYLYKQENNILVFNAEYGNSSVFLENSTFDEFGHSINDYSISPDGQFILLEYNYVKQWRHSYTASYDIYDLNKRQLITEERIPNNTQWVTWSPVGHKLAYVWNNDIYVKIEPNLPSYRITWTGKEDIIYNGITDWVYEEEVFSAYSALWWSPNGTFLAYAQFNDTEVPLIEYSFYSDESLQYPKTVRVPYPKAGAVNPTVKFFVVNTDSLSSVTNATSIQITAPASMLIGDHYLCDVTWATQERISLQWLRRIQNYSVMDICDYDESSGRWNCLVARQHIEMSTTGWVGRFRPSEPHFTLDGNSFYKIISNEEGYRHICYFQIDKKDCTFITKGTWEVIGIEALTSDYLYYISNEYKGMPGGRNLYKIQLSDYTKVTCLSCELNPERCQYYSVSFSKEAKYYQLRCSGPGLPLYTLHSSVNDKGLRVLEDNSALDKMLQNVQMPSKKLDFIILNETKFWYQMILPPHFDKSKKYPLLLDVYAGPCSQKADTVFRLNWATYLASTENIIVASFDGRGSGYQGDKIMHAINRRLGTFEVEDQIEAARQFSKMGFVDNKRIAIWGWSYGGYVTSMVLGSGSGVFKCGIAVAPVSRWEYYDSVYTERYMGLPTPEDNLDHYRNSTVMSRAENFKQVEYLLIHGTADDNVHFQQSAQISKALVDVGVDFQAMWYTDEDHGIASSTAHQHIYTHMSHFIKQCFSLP
row,SMILES,inhibition at 100 µM [%]
1,"CC(=O)NC(=N)NC(=O)c1ccccc1 [2k, N-(N-Acetylcarbamimidoyl)benzamide]",79.3
2,"COc1ccc(-c2nc(=O)c3ccccc3n2C)cc1 [4f, 2-(4-Methoxyphenyl)-1-methylquinazolin-4(1H)-one]",82.4
3,"N=C(NC(=O)c1ccccc1)NC(=O)c1ccccc1 [2n, N,N′-(Iminomethylene)dibenzamide]",82.7

# The next lines start with the values.
row,inhibition at 100 µM [%],SMILES
1,79.1,"COc1ccc(-c2nc(=O)c3ccccc3[nH]2)cc1 [4h, 2-(4-Methoxyphenyl) quinazolin-4(1H)-one]"
2,72.5,"O=c1nc(-c2ccc(C(F)(F)F)cc2)[nH]c2ccccc12 [4i, 2-(4-(Trifluoromethyl)phenyl)quinazolin-4(1H)-one]"
